{"source": "ChEMBL document CHEMBL4229332", "about": "“Novel multi-target azinesulfonamides of cyclic amine derivatives as potential antipsychotics with pro-social and pro-cognitive effects” (Eur J Med Chem, 2018)", "key": {"[1]": {"biological_target": "5-hydroxytryptamine receptor 1B (Cricetulus griseus) (UniProt P46636)", "sequence (P46636 whole entry)": "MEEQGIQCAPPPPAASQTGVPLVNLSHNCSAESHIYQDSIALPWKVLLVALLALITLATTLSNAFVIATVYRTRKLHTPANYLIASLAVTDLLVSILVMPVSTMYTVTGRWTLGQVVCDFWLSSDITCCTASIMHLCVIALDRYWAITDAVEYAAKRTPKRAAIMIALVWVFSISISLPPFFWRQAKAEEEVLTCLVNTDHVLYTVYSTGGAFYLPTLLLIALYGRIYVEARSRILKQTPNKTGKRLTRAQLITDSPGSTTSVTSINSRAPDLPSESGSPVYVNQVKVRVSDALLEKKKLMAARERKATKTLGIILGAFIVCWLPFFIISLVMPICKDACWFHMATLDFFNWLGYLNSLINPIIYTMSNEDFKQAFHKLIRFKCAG", "experiment": "Antagonist activity at 5-HT1BR in CHO cells assessed as inhibition of serotonin-induced response", "type": "functional, cell-based"}, "[2]": {"biological_target": "T1, 5-hydroxytryptamine receptor 2A (Homo sapiens, UniProt P28223)", "T1 sequence (P28223 whole entry)": "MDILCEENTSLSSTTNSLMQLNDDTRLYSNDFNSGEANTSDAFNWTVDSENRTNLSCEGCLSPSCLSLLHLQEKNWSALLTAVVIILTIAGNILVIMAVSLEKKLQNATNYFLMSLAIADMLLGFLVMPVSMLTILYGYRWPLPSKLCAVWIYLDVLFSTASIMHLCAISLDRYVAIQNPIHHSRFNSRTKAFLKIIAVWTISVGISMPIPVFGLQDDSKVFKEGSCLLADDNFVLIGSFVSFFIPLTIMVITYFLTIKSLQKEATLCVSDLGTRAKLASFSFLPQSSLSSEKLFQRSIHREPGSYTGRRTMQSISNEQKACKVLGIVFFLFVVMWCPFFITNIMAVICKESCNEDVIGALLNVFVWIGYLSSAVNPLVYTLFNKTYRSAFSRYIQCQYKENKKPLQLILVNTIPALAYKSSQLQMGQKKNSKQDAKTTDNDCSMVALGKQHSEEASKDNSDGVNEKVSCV", "experiment": "Antagonist activity at human 5-HT2AR expressed in HEK293 cells assessed as inhibition of serotonin-induced IP1 accumulation after 60 mins by HTRF method", "type": "functional, cell-based"}, "[3]": {"biological_target": "T2, 5-hydroxytryptamine receptor 1A (Homo sapiens) (UniProt P08908)", "T2 sequence (whole entry)": "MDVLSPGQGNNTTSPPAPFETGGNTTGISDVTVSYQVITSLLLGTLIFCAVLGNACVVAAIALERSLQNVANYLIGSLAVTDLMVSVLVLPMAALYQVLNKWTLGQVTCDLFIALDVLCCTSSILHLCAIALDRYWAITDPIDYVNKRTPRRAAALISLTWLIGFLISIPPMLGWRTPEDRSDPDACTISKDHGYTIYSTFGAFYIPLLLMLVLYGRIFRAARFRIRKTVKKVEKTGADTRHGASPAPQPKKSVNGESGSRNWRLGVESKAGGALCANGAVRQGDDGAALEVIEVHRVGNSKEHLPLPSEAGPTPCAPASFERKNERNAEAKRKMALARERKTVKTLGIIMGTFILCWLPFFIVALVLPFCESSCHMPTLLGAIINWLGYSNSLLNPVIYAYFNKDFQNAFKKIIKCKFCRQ", "experiment": "Antagonist activity at human 5-HT1AR expressed in CHO-K1 cells assessed as inhibition of serotonin-induced cAMP accumulation by chemiluminescence-based assay", "type": "functional, cell-based"}, "[4]": {"biological_target": "T3, Alpha-1A adrenergic receptor (Homo sapiens) (UniProt P35348)", "T3 sequence (whole entry)": "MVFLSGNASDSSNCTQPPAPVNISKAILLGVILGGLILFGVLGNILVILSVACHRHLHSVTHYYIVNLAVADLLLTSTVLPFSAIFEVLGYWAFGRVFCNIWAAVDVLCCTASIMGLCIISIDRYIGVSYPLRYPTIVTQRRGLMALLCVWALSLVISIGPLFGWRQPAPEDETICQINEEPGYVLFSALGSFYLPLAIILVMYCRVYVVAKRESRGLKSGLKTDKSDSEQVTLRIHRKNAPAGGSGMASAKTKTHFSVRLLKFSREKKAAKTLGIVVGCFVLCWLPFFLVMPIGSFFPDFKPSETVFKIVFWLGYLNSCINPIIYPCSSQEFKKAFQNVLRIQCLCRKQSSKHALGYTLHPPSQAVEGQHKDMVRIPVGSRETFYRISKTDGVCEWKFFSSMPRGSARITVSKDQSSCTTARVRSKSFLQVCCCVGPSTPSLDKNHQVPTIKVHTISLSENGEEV", "experiment": "Displacement of [3H]-prazosin from human adrenergic alpha1A receptor expressed in CHO cells at 10^-6 M after 60 mins by scintillation counting method relative to control", "type": "cell-based"}, "[5]": {"biological_target": "D(3) dopamine receptor (Homo sapiens) (UniProt P35462)", "sequence (P35462 whole entry)": "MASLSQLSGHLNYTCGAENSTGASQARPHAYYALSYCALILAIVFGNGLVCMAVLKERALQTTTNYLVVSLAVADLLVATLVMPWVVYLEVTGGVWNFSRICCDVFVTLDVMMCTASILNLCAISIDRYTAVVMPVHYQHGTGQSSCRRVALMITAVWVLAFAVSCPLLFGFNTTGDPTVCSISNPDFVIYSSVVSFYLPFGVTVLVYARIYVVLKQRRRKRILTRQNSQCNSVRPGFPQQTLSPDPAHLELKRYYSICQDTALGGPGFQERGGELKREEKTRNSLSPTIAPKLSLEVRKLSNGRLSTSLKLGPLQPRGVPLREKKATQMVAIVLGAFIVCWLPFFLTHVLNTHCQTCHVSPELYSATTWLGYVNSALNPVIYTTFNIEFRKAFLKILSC", "experiment": "Antagonist activity at human D3R expressed in CHO-K1 cells assessed as inhibition of […] cAMP accumulation at 10^-6 M by chemiluminescence-based assay", "type": "functional, cell-based"}, "[6]": {"biological_target": "5-hydroxytryptamine receptor 2B (Homo sapiens) (UniProt P41595)", "sequence (P41595 whole entry)": "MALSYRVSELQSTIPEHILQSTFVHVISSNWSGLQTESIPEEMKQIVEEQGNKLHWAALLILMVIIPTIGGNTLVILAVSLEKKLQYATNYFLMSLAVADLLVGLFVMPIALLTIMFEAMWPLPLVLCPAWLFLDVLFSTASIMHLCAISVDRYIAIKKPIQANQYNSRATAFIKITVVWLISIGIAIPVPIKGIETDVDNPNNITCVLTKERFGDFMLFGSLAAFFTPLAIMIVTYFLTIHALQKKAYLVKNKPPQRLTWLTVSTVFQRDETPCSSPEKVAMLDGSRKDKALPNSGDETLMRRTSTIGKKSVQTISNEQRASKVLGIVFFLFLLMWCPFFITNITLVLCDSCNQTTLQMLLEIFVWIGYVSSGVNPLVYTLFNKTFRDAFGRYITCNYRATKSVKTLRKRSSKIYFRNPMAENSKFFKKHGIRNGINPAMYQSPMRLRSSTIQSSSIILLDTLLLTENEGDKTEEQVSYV", "experiment": "Displacement of [3H]mesulergine from human 5-HT2B receptor expressed in CHO cells at 10^-6 M after 60 mins by scintillation counting analysis relative to control", "type": "cell-based"}, "[7]": {"biological_target": "5-hydroxytryptamine receptor 6 (Homo sapiens, UniProt P50406)", "sequence (P50406 whole entry)": "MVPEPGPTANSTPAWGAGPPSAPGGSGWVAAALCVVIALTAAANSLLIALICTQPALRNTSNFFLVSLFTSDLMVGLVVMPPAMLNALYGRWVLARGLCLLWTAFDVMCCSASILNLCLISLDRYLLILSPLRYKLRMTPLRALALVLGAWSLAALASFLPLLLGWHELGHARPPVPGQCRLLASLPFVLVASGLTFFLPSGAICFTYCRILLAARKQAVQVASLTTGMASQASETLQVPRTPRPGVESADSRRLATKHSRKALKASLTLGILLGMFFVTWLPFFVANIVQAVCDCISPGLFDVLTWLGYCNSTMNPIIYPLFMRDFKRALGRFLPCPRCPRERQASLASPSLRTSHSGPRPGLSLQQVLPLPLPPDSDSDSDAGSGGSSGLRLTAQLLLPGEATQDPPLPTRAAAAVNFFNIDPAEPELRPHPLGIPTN", "experiment": "Antagonist activity at human 5-HT6R expressed in CHO-K1 cells assessed as inhibition of serotonin-induced cAMP accumulation at 10^-6 M by chemiluminescence-based assay", "type": "functional, cell-based"}, "[8]": {"biological_target": "T4, Sodium-dependent serotonin transporter (Homo sapiens, UniProt P31645)", "experiment": "Displacement of [3H]-imipramine from human SERT expressed in CHO cells at 10^-6 M after 60 mins by scintillation counting method relative to control", "type": "cell-based"}, "[9]": {"biological_target": "D(2) dopamine receptor (Homo sapiens) (UniProt P14416)", "sequence (P14416 whole entry)": "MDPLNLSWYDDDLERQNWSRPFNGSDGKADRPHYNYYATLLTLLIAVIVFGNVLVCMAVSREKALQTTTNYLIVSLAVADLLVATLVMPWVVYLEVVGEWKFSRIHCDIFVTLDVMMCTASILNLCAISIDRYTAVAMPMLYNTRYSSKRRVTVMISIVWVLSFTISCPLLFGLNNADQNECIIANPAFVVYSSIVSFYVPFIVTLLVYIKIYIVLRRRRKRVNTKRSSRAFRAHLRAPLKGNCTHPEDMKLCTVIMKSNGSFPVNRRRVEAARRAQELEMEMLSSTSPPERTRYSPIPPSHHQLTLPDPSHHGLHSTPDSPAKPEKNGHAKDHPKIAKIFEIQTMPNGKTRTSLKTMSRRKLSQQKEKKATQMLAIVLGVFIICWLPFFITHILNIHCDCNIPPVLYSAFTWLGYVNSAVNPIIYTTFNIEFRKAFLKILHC", "experiment": "Antagonist activity at human D2LR expressed in CHO-K1 cells assessed as inhibition of dopamine-induced cAMP accumulation at 10^-6 M by chemiluminescence-based assay", "type": "functional, cell-based"}, "Rattus norvegicus [10]": {"test_system": "Rattus norvegicus", "experiment": "Toxicity in Sprague-Dawley rat assessed as induction of catalepsy at 30 mg/kg, ip measured every 30 mins up to 240 mins by bar test", "type": "organism-based", "details": "in vivo"}, "[11]": {"biological_target": "T4, Sodium-dependent serotonin transporter", "experiment": "Displacement of [3H]imipramine from recombinant human SERT expressed in CHO cells after 60 mins by scintillation counting method", "type": "cell-based"}, "[12]": {"biological_target": "D(2) dopamine receptor (Homo sapiens) (UniProt P14416)", "experiment": "Antagonist activity at human D2LR expressed in CHO-K1 cells assessed as inhibition of dopamine-induced cAMP accumulation by chemiluminescence-based assay", "type": "functional, cell-based"}, "[13]": {"biological_target": "Sodium-dependent dopamine transporter (Homo sapiens) (UniProt Q01959)", "sequence (Q01959 whole entry)": "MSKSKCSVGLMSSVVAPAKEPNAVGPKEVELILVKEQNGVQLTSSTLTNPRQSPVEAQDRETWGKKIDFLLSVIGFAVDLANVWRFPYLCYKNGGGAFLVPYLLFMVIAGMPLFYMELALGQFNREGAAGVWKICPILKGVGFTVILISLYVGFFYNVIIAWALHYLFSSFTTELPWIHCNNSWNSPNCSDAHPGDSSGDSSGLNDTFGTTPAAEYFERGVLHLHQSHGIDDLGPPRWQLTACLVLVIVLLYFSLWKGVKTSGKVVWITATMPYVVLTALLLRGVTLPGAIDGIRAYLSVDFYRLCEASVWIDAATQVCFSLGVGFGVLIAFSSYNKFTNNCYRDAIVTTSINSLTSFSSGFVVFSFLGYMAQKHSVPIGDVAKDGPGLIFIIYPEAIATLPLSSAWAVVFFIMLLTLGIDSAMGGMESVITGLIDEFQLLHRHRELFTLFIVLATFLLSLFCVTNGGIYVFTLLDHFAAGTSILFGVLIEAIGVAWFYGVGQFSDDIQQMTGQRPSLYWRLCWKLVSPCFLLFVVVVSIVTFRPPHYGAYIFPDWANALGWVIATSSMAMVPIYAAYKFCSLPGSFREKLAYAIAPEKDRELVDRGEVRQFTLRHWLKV", "experiment": "Displacement of [3H]-BTCP from human DAT expressed in CHO cells at 10^-6 M after 120 mins by scintillation counting method relative to control", "type": "cell-based"}, "[14]": {"biological_target": "D(2) dopamine receptor (Homo sapiens) (UniProt P14416)", "experiment": "Displacement of [3H]7-OH-DPAT from human recombinant dopamine D2S receptor expressed in CHO cells at 10^-6 M after 60 mins by scintillation counting analysis relative to control", "type": "cell-based"}, "[15]": {"biological_target": "T3, Alpha-1A adrenergic receptor (Homo sapiens)", "experiment": "Antagonist activity at human adrenergic alpha1A receptor expressed in CHO cells assessed as inhibition of epinephrine-induced calcium flux by fluorimetric method", "type": "functional, cell-based"}, "[16]": {"experiment": "Tmax in Wistar rat brain at 9 mg/kg per os administered as a single dose by LC-MS/MS analysis", "type": "ADME, organism-based", "details": "po"}, "Rattus norvegicus [17]": {"test_system": "Rattus norvegicus", "experiment": "Toxicity in Wistar rat assessed as increase in prolactin level at 1 to 3 mg/kg, po after 60 mins by ELISA", "type": "organism-based", "details": "in vivo, 1 h"}, "[18]": {"biological_target": "5-hydroxytryptamine receptor 7 (Homo sapiens, UniProt P34969)", "sequence (P34969 whole entry)": "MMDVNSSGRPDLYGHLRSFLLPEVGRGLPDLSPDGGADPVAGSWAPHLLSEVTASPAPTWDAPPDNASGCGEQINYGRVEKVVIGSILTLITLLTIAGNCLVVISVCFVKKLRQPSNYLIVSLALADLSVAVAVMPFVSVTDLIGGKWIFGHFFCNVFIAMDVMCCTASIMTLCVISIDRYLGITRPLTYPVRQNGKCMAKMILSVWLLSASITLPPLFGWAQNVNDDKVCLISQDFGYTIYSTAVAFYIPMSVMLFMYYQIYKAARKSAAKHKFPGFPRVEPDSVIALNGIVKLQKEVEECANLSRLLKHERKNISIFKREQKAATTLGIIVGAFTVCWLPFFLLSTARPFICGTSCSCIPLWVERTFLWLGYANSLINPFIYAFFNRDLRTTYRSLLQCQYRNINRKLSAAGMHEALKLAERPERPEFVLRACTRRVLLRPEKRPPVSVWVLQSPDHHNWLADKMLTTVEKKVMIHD", "experiment": "Antagonist activity at human 5-HT7R expressed in human DLD1 cells assessed as inhibition of serotonin-induced cAMP accumulation at 10^-6 M by chemiluminescence-based assay", "type": "functional, cell-based"}, "[19]": {"biological_target": "D(3) dopamine receptor (Homo sapiens) (UniProt P35462)", "experiment": "Antagonist activity at human D3R expressed in CHO-K1 cells assessed as inhibition of dopamine induced cAMP accumulation at 10^-6 M after 30 mins by HTRF method", "type": "functional, cell-based"}, "[20]": {"biological_target": "T1, 5-hydroxytryptamine receptor 2A", "experiment": "Antagonist activity at human 5-HT2AR expressed in HEK293 cells assessed as inhibition of serotonin-induced calcium flux at 10^-6 M after 30 mins by HTRF method", "type": "functional, cell-based"}, "[21]": {"experiment": "Toxicity in ip dosed Sprague-Dawley rat assessed as induction of catalepsy measured every 30 mins up to 240 mins by bar test", "type": "organism-based", "details": "Sprague-Dawley, in vivo"}}, "data": [{"compound": "O=S(=O)(c1cncc2ccccc12)N1CCC[C@H]1CCN1CCN(c2cccc3sccc23)CC1", "values": [{"measurement": "Kb", "setting": "[1]", "result": 210, "unit": "nM"}, {"measurement": "Kb", "setting": "[2]", "result": 2.3, "unit": "nM"}, {"measurement": "Kb", "setting": "[3]", "result": 35.6, "unit": "nM"}, {"measurement": "inhibition", "setting": "[4]", "result": 94, "unit": "%"}, {"measurement": "inhibition", "setting": "[5]", "result": 73, "unit": "%"}, {"measurement": "inhibition", "setting": "[6]", "result": 100, "unit": "%"}, {"measurement": "inhibition", "setting": "[7]", "result": 23, "unit": "%"}, {"measurement": "inhibition", "setting": "[8]", "result": 84, "unit": "%"}, {"measurement": "inhibition", "setting": "[9]", "result": 92, "unit": "%"}, {"measurement": "Activity", "setting": "Rattus norvegicus [10]", "result": "Non-Toxic"}, {"measurement": "Ki", "setting": "[11]", "result": 76, "unit": "nM"}, {"measurement": "Kb", "setting": "[12]", "result": 3, "unit": "nM"}, {"measurement": "inhibition", "setting": "[13]", "result": 19, "unit": "%"}, {"measurement": "inhibition", "setting": "[14]", "result": 100, "unit": "%"}, {"measurement": "Kb", "setting": "[15]", "result": 13, "unit": "nM"}, {"measurement": "Tmax", "setting": "[16]", "result": 1, "unit": "h"}, {"measurement": "Activity", "setting": "Rattus norvegicus [17]", "result": "Non-Toxic"}, {"measurement": "inhibition", "setting": "[18]", "result": 94, "unit": "%"}]}, {"compound": "O=S(=O)(c1cncc2ccccc12)N1CCC[C@H]1CCN1CCN(c2nsc3ccccc23)CC1", "values": [{"measurement": "inhibition", "setting": "[19]", "result": 100, "unit": "%"}, {"measurement": "inhibition", "setting": "[20]", "result": 100, "unit": "%"}, {"measurement": "MTD", "setting": "[21]", "result": 30, "unit": "mg/kg"}]}]}
